Experimental data as given in patent US4185032A, “Ureylene phenylene anionic naphthalenesulfonic acids” (American Cyanamid Company, priority 1978, dated 1980).
Counter-ions that a name gives are not always drawn.

Tests used:
[1] = test system: hereditary angioneurotic edema; conditions: literature, in words; cited from earlier work
human serum complement = conditions: in vitro and in vivo; reduction in total hemolytic complement activity; cited from earlier work
activated human C1 = biological target: T1, activated human C1 (Homo sapiens, UniProt P09871); experiment: Test Code 026 (C1 inhibitor); type: biochemical; conditions: well number in twofold serial dilution assay, higher = more active
T1 construct: fluid-phase human C2 as substrate in presence of C4
T1 sequence (P09871 16-688): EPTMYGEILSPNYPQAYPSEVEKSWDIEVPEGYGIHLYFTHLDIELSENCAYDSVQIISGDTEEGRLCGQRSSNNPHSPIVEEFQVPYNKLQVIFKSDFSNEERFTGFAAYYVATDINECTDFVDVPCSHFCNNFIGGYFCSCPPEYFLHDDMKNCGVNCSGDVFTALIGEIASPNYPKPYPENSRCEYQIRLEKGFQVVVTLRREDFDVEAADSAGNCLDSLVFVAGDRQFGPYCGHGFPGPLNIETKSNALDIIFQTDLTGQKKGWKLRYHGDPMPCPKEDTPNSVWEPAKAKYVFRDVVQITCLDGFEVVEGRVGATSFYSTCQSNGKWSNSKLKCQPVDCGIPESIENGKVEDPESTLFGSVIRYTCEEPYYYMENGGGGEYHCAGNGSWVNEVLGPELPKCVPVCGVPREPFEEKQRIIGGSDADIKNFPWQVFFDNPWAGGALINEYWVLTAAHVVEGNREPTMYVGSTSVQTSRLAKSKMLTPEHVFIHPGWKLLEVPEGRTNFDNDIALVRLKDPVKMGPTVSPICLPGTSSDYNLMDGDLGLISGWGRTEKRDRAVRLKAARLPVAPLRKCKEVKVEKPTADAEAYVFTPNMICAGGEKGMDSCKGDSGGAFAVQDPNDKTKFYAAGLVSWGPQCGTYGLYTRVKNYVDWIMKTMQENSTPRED
T1 sequence (P00736 18-705 partner): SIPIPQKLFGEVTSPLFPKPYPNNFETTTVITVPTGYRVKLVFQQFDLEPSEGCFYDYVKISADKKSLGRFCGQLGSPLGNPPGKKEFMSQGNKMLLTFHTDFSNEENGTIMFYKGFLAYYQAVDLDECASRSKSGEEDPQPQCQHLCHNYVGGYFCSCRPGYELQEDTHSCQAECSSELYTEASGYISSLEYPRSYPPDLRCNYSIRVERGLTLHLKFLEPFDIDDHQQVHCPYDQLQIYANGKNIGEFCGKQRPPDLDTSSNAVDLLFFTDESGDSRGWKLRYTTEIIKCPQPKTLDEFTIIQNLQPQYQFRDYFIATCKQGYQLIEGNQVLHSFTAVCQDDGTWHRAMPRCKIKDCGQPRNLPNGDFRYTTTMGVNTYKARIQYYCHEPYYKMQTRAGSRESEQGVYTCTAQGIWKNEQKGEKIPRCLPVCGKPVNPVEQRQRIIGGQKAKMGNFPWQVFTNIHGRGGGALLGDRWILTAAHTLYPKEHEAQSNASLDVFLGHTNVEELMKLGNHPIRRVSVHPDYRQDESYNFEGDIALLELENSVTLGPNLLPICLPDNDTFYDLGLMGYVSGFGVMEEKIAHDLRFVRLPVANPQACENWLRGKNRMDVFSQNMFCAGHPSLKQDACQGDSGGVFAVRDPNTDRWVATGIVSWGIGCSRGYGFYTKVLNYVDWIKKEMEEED
T1 sequence (P02745 23-245 partner): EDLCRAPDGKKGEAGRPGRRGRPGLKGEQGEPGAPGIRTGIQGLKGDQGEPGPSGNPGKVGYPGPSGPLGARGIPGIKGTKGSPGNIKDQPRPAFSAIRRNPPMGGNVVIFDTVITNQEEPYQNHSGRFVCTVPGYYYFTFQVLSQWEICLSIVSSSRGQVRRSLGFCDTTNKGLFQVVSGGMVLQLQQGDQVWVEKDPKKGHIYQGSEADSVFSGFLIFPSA
T1 sequence (P02746 28-253 partner): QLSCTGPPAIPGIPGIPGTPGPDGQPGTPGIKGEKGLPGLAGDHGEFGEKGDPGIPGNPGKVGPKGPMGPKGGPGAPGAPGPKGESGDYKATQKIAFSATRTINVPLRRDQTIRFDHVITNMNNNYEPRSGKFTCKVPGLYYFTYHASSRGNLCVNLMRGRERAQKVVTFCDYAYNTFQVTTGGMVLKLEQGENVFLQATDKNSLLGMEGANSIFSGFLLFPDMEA
T1 sequence (P02747 29-245 partner): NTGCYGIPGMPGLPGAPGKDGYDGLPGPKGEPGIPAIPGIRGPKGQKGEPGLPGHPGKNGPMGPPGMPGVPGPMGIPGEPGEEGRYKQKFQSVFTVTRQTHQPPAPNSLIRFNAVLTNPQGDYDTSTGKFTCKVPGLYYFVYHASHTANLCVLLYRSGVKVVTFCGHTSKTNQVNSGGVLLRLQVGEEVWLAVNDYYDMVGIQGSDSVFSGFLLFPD
From the text: (§1) An active inhibitor protects C2 from C1 and C4; (ii) Test Code 035 (C3-C9 inhibitor)--This test determines the ability of the late components of human complement (C3-C9) to lyse EAC 142 in the presence of appropriate dilutions of the test compound. An active inhibitor protects EAC 142 from lysis by human C3-C9; (iii) Test Code 036 (C-Shunt inhibitor)--In this test human erythrocytes rendered fragile are lysed in autologous serum via the shunt pathway activated by cobra venom factor in the presence of appropriate dilutions of the test compound. Inhibition of the shunt pathway results in failure of lysis; (iv) Forssman Vasculitis Test--Here, the well known complement dependent lesion, Forssman vasculitis, is produced in guinea pigs by intradermal injection of rabbit anti-Forssman antiserum. The lesion is measured in terms of diameter, edema and hemorrhage and the extent to which a combined index of these is inhibited by prior intraperitoneal injection of the test compound at 200 mg/kg is then reported, unless otherwise stated; (v) Forssman Shock Test--Lethal shock is produced in guinea pigs by an i.v. injection of anti-Forssman antiserum and the harmonic mean death time of treated guinea pigs is compared with that of simultaneous controls; (vi) Complement Level Reduction Test--In this test, the above dosed guinea pigs, or others, are bled for serum and the complement level is determined in undiluted serum by the capillary tube method of U.S. Pat. No. 3,876,376 and compared to undosed control guinea pigs; and (viii) Cap 50 Test--Here, appropriate amounts of the test compound are added to a pool of guinea pig serum in vitro, after which the undiluted serum capillary tube assay referred to about is run. The concentration of compound inhibiting 50% is reported.

[2] = test system: late components of human complement (C3-C9); experiment: Test Code 035 (C3-C9 inhibitor), lysis of EAC 142; type: cell-based
From the text: as §1

shunt pathway = experiment: Test Code 036 (C-Shunt inhibitor), lysis of human erythrocytes via the shunt pathway activated by cobra venom factor; type: cell-based
From the text: as §1

whole complement = experiment: Complement Level Reduction Test (in vivo, guinea pig; serum whole complement by capillary tube assay)
From the text: as §1
With reference to Table I. guinea pigs weighing about 300 g were dosed intravenously (i.v.) or intraperitoneally (i.p.) with 200 mg/kg of the test compound dissolved in saline and adjusted to pH 7-8. […] The serum was tested for whole complement using the capillary tube assay. Percent inhibition was calculated by comparison with simultaneous controls. The results appear in Table I together with results of tests code 026, 035, 036, Cap 50, % inhibition and Forssman shock.

complement system = conditions: literature, in words; cited from earlier work
[3] = Table I, well number in twofold serial dilution assay, higher = more active
[4] = Table II (Intermediates), twofold serial dilution assay

**Q.** For `NC[C@H]1CC[C@H](C(=O)O)CC1` [tranexamic acid], which “success in the treatment of hereditary angioneurotic edema” value [1] is on record?
**A.** used with success in the treatment of hereditary angioneurotic edema

**Q.** With pentosan-polysulfoester as the compound, how does the “anticomplementary activity on human serum” value (human serum complement) read?
**A.** anticomplementary activity on human serum, both in vitro and in vivo

**Q.** Which “Cl 026 Wells” value (activated human C1; Table I) does the source give for `O=C(Nc1ccc(C(=O)Nc2ccc(C(=O)Nc3ccc(S(=O)(=O)[O-])c4cc(S(=O)(=O)[O-])cc(S(=O)(=O)[O-])c34)c(S(=O)(=O)[O-])c2)c(S(=O)(=O)[O-])c1)Nc1ccc(C(=O)Nc2ccc(C(=O)Nc3ccc(S(=O)(=O)[O-])c4cc(S(=O)(=O)[O-])cc(S(=O)(=O)[O-])c34)c(S(=O)(=O)[O-])c2)c(S(=O)(=O)[O-])c1.[Na+].[Na+].[Na+].[Na+].[Na+].[Na+].[Na+].[Na+].[Na+].[Na+]` [8,8'-[Ureylenebis[(2-sulfo-4,1-phenylenecarbonyl)imino(2-sulfo-4,1-phenylenecarbonyl)imino]]di-1,3,5-naphthalenetrisulfonic acid, decasodium salt] here?
**A.** +7 wells

**Q.** What about the “C-Late 035 Wells” value [2, 3] of the same compound?
**A.** +1 wells

**Q.** What about the “Shunt Inhibition 036 Wells” value (shunt pathway; [3]) of the same compound?
**A.** +4 wells

**Q.** What about the “% Inhibition, Intraperitoneal, 30 minutes” value (whole complement; Table I, i.p. 200 mg/kg) of the same compound?
**A.** -31%

**Q.** What about the “% Inhibition, Intraperitoneal, 60 minutes” value (“% Inhibition … 60 minutes” below) (whole complement; Table I, i.p. 200 mg/kg) of the same compound?
**A.** -36%

**Q.** What about the “% Inhibition, Intraperitoneal, 120 minutes” value (whole complement; Table I, i.p. 200 mg/kg) of the same compound?
**A.** -58%

**Q.** What about the “% Inhibition, Intravenous, 2 minutes” value (whole complement; Table I, i.v. 200 mg/kg) of the same compound?
**A.** -38%

**Q.** And the “% Inhibition, Intravenous, 30 minutes” value (whole complement; Table I, i.v. 200 mg/kg)?
**A.** -47%

**Q.** What about the “% Inhibition, Intravenous, 120 minutes” value (whole complement; Table I, i.v. 200 mg/kg) of the same compound?
**A.** -22%

**Q.** With `Nc1ccc2cc(S(=O)(=O)O)cc(O)c2c1N=Nc1ccc(NC(=O)Nc2ccc(N=Nc3c(N)ccc4cc(S(=O)(=O)O)cc(O)c34)c(S(=O)(=O)O)c2)cc1S(=O)(=O)O` [chloroazol fast pink, 3,3'-ureylenebis[6-(2-amino-8-hydroxy-6-sulfo-1-naphthylazo)benezenesulfonic acid], tetrasodium salt] as the compound, how does the “anticomplementary effect / complement inhibition” value (complement system) read?
**A.** anticomplementary effect

**Q.** Which results are given for `O=C(Nc1ccc(C(=O)Nc2ccc(C(=O)Nc3cc(S(=O)(=O)O)cc4cc(S(=O)(=O)O)cc(S(=O)(=O)O)c34)c(S(=O)(=O)O)c2)c(S(=O)(=O)O)c1)Nc1ccc(C(=O)Nc2ccc(C(=O)Nc3cc(S(=O)(=O)O)cc4cc(S(=O)(=O)O)cc(S(=O)(=O)O)c34)c(S(=O)(=O)O)c2)c(S(=O)(=O)O)c1` [8,8'-[Ureylenebis[(2-sulfo-4,1-phenylenecarbonyl)-imino](2-sulfo-4,1-phenylenecarbonyl)imino]di-1,3,6-naphthalenetrisulfonic acid, decasodium salt]?
**A.** Cl 026 Wells (activated human C1; Table I): +8 wells; C-Late 035 Wells [2, 3]: +1 wells; % Inhibition, Intraperitoneal, 30 minutes (whole complement; Table I, i.p. 200 mg/kg): -68%; % Inhibition, Intraperitoneal, 60 minutes (whole complement; Table I, i.p. 200 mg/kg): -24%; % Inhibition, Intraperitoneal, 120 minutes (whole complement; Table I, i.p. 200 mg/kg): -14%

**Q.** For `Nc1ccc(C(=O)Nc2ccc(C(=O)Nc3ccc(S(=O)(=O)[O-])c4cc(S(=O)(=O)[O-])cc(S(=O)(=O)[O-])c34)c(S(=O)(=O)[O-])c2)c(S(=O)(=O)[O-])c1.[Na+].[Na+].[Na+].[Na+].[Na+]` [8-[4-(4-Amino-2-sulfobenzamido)-2-sulfobenzamido]-1,3,5-naphthalenetrisulfonic acid, pentasodium salt], which “Cl 026 Wells” value (activated human C1; Table II (Intermediates)) is on record?
**A.** +4 wells

**Q.** What about the “C-Late 035 Wells” value [2, 4] of the same compound?
**A.** N

**Q.** And the “Shunt Inhibition 036 Wells” value (shunt pathway; [4])?
**A.** N

**Q.** What about the “% Inhibition, Intraperitoneal, 30 minutes” value (whole complement; Table II (Intermediates), i.p.) of the same compound?
**A.** -15%

**Q.** And the “% Inhibition … 60 minutes” value (whole complement; Table II (Intermediates), i.p.)?
**A.** -17%

**Q.** And the “% Inhibition, Intraperitoneal, 120 minutes” value (whole complement; Table II (Intermediates), i.p.)?
**A.** -23%

**Q.** And the “% Inhibition, Intravenous, 2 minutes” value (whole complement; Table II (Intermediates), i.v.)?
**A.** -52%

**Q.** What about the “% Inhibition, Intravenous, 30 minutes” value (whole complement; Table II (Intermediates), i.v.) of the same compound?
**A.** -28%

**Q.** What about the “% Inhibition, Intravenous, 120 minutes” value (whole complement; Table II (Intermediates), i.v.) of the same compound?
**A.** -10%

**Q.** For heparin, which “anticomplementary effect / complement inhibition” value (complement system) is on record?
**A.** anticomplementary effect

**Q.** Which “Cl 026 Wells” value (activated human C1; Table II (Intermediates)) does the source give for `Nc1ccc(C(=O)Nc2cc(C(=O)O)cc(C(=O)Nc3ccc(S(=O)(=O)[O-])c4cc(S(=O)(=O)[O-])cc(S(=O)(=O)[O-])c34)c2)c(S(=O)(=O)[O-])c1.[Na+].[Na+].[Na+].[Na+]` [5-(4-Amino-2-sulfobenzamido)-N-(4,6,8-trisulfo-1-naphthyl)isophthalamic acid, tetrasodium salt] here?
**A.** +3 wells

**Q.** What about the “C-Late 035 Wells” value [2, 4] of the same compound?
**A.** N

**Q.** And the “Shunt Inhibition 036 Wells” value (shunt pathway; [4])?
**A.** N

**Q.** Which “C-Late 035 Wells” value [2, 3] does the source give for `O=C(Nc1cc(C(=O)O)cc(C(=O)Nc2cc(C(=O)O)cc(C(=O)Nc3ccc(S(=O)(=O)O)c4cc(S(=O)(=O)O)cc(S(=O)(=O)O)c34)c2)c1)Nc1cc(C(=O)O)cc(C(=O)Nc2cc(C(=O)O)cc(C(=O)Nc3ccc(S(=O)(=O)O)c4cc(S(=O)(=O)O)cc(S(=O)(=O)O)c34)c2)c1` [5,5'-Ureylenebis[N-[3-carboxy-5-(4,6,8-trisulfo-1-naphthylca] [5,5'-Ureylenebis[N-[3-carboxy-5-(4,6,8-trisulfo-1-naphthaylcarbamoyl)phenyl]isophthalamic acid], decasodium salt] here?
**A.** +2 wells

**Q.** What about the “% Inhibition, Intraperitoneal, 30 minutes” value (whole complement; Table I, i.p. 200 mg/kg) of the same compound?
**A.** -86%

**Q.** And the “% Inhibition … 60 minutes” value (whole complement; Table I, i.p. 200 mg/kg)?
**A.** -89%

**Q.** And the “% Inhibition, Intraperitoneal, 120 minutes” value (whole complement; Table I, i.p. 200 mg/kg)?
**A.** -96%

**Q.** With `Nc1ccc(C(=O)Nc2ccc(C(=O)Nc3cc(S(=O)(=O)[O-])cc4cc(S(=O)(=O)[O-])cc(S(=O)(=O)[O-])c34)c(S(=O)(=O)[O-])c2)c(S(=O)(=O)[O-])c1.[Na+].[Na+].[Na+].[Na+].[Na+]` [8-[4-(4-Amino-2-sulfobenzamido)-2-sulfobenzamido]-1,3,6-naphthalenetrisulfonic acid pentasodium salt] as the compound, how does the “Cl 026 Wells” value (activated human C1; Table II (Intermediates)) read?
**A.** +5 wells

**Q.** And the “C-Late 035 Wells” value [2, 4]?
**A.** N

**Q.** And the “Shunt Inhibition 036 Wells” value (shunt pathway; [4])?
**A.** N

**Q.** And the “% Inhibition, Intravenous, 2 minutes” value (whole complement; Table II (Intermediates), i.v.)?
**A.** -77%

**Q.** And the “% Inhibition, Intravenous, 30 minutes” value (whole complement; Table II (Intermediates), i.v.)?
**A.** -43%

**Q.** And the “% Inhibition, Intravenous, 120 minutes” value (whole complement; Table II (Intermediates), i.v.)?
**A.** -31%

**Q.** For `O=C(Nc1ccc(C(=O)Nc2cc(C(=O)O)cc(C(=O)Nc3ccc(S(=O)(=O)O)c4cc(S(=O)(=O)O)cc(S(=O)(=O)O)c34)c2)c(S(=O)(=O)O)c1)Nc1ccc(C(=O)Nc2cc(C(=O)O)cc(C(=O)Nc3ccc(S(=O)(=O)O)c4cc(S(=O)(=O)O)cc(S(=O)(=O)O)c34)c2)c(S(=O)(=O)O)c1` [5,5'-[Ureylenebis[(2-sulfo-4,1-phenylenecarbonyl)-imino]]bis[N-4,6,8-trisulfo-1-naphthylisophthalamic acid], octasodium salt], which “Cl 026 Wells” value (activated human C1; Table I) is on record?
**A.** +6 wells

**Q.** What about the “C-Late 035 Wells” value [2, 3] of the same compound?
**A.** +2 wells

**Q.** What about the “Shunt Inhibition 036 Wells” value (shunt pathway; [3]) of the same compound?
**A.** +5 wells

**Q.** For `Nc1cc(C(=O)O)cc(C(=O)Nc2cc(C(=O)O)cc(C(=O)Nc3ccc(S(=O)(=O)[O-])c4cc(S(=O)(=O)[O-])cc(S(=O)(=O)[O-])c34)c2)c1.[Na+].[Na+].[Na+]` [5-Amino-3'-carboxy-5'-(4,6,8-trisulfo-1-naphthylcarbamoyl)isophthalanilic acid, trisodium salt], which “Cl 026 Wells” value (activated human C1; Table II (Intermediates)) is on record?
**A.** +3 wells

**Q.** What about the “C-Late 035 Wells” value [2, 4] of the same compound?
**A.** N

**Q.** What about the “Shunt Inhibition 036 Wells” value (shunt pathway; [4]) of the same compound?
**A.** N

**Q.** For `NCCCCCC(=O)O` [epsilon-aminocaproic acid], which “success in the treatment of hereditary angioneurotic edema” value [1] is on record?
**A.** used with success in the treatment of hereditary angioneurotic edema

**Q.** With `Cc1ccc(C(=O)Nc2ccc(S(=O)(=O)O)c3cc(S(=O)(=O)O)cc(S(=O)(=O)O)c23)cc1NC(=O)c1cccc(NC(=O)Nc2cccc(C(=O)Nc3cc(C(=O)Nc4ccc(S(=O)(=O)O)c5cc(S(=O)(=O)O)cc(S(=O)(=O)O)c45)ccc3C)c2)c1` [Suramin, reference compound] as the compound, how does the “Cl 026 Wells” value (activated human C1; Table I) read?
**A.** +4 wells

**Q.** And the “% Inhibition, Intraperitoneal, 30 minutes” value (whole complement; Table I, i.p. 200 mg/kg)?
**A.** -9%

**Q.** And the “% Inhibition … 60 minutes” value (whole complement; Table I, i.p. 200 mg/kg)?
**A.** -17%

**Q.** And the “% Inhibition, Intraperitoneal, 120 minutes” value (whole complement; Table I, i.p. 200 mg/kg)?
**A.** -44%

**Q.** What about the “anticomplementary effect / complement inhibition” value (complement system) of the same compound?
**A.** moderately active as a complement inhibitor
